Source: US11541084B2, “Method of promoting bone regrowth” (GENMONT BIOTECH INC., priority 2017, dated 2023)

Experiments:
Assay type in all cases: in vivo, mice (ICR female)
osteocalcin gene = test: Real-time PCR of bone cDNA from OVX mice: osteocalcin expression; settings: bone RNA of OVX mice after 28 days of tube feed; compared with disease group (OVX+H2O)
Description: (§1) 8-week-old ICR female rats were purchased from BioLASCO Taiwan and ovariectomy was performed when they were 9 week-old. Mice were underwent anesthesia and were ovariectomized through back on both sides of the ovaries. All groups were given the test substance by means of tube feed at 4 days after surgery. The groups were divided into a sham operation group (control group, their abdominal cavity were cut but their ovaries were not removed); and 4 groups ovariectomized group (Ovariectomy; OVX). When the mice were sacrificed, the ovarian tissues were checked and confirmed whether the removal of ovarian was successful. The experimental results of the mice under failure operation were not used. […]
(§2) Extraction of tibial RNA: The left femur of the mice were removed, cut into small pieces with scissor, and an appropriate amount of liquid nitrogen was added to grind the bones quickly. […] The solution was placed at room temperature to react for 5 minutes, followed by centrifugalized and extracted the upper layer to new microcentrifuge tubes (eppendorf); 0.25 ml isopropanol was added thereto and the solution was placed at room temperature for 10 minutes and then centrifugalized; the supernatant was removed and the precipitate was washed with 0.5 ml 75% ethanol; after the precipitate was dried, 20-50 μl DEPC water was added to dissolve the precipitate and the RNA concentration was measured. […]

cytokine TGF-β = test: Real-time PCR of bone cDNA from OVX mice: TGF-β expression; settings: bone RNA of OVX mice after 28 days of tube feed; compared with disease group (OVX+H2O)
Description: as §1, §2

[1] = test system: ovariectomized (OVX) mice; test: Bone tissue analysis by micro computed tomography of the femur in the osteoporosis mouse model; settings: right femur, tube feed for 28 days, mean ±SD
Description: Experiment 1: Bone tissue analysis
(§3) (1) preparation of viable bacteria: Inoculating the Lactobacillus plantarum GMNL-662 from a frozen tube to 1 ml of MRS broth, and standing under 37° C. for aerobically incubating for 20 hours. The next day, adding 15 μl culture solution into 1.5 ml of MRS broth (1% secondary activation), and then standing under 37° C. for aerobically incubating for 20 hours. Estimating the bacteria number by using OD 600 to adjust the bacteria concentration to 8×10^7 CFU/ml.
as §3, with “(2)” for “(1)”, “dead” for “viable”, “Plantarum strain” for “plantarum”, “4.1×10^8” for “8×10^7”
8-week-old ICR female […] were purchased from BioLASCO Taiwan and ovariectomy was performed when they were 9 week-old. Mice were underwent anesthesia and were ovariectomized through back on both sides of the ovaries. All groups were given the test substance by means of tube feed at 4 days after surgery. The groups were divided into a sham operation group (control group, their abdominal cavity were cut but their ovaries were not removed); and 4 groups ovariectomized group (Ovariectomy; OVX). When the mice were sacrificed, the ovarian tissues were checked and confirmed whether the removal of ovarian was successful. The experimental results of the mice under failure operation were not used. […] The mice were given 0.1 ml per 10 grams of body weight and 4 times a week. The remaining two groups were fed with 0.2 ml of alive GMNL-662 (strain concentration is 8×10^7 cfu/ml; daily dose of the mouse is 1.6×10^7 cfu/mouse, the human dose is 4×10^9 cfu/60 kg adult), and 0.2 ml of dead GMNL-662 (strain concentration is 4.1×10^8 cfu/ml; daily dose of the mouse is 8.2×10^7 cells/mouse, the human dose is 2×10^10 cells/60 kg adult). The two groups were fed with tube one time every day, continued for 28 days, the mice were anesthetized and sacrificed for intraperitoneal cephalic vein sampling, and each femur was removed for analysis.
The backbone of the right femur far from the end was taken a computer tomography by a micro computed tomography (SkyScan 1076, Kontizh, Belgium, with resolution of 18 μm), and the trabecular bone volume ratio (i.e. bone volume/tissue volume) is analyzed by a software. The analyzed position was selected to include the area of 100 pieces under the growth plate excluding cortical bone. The bone mineral density analysis was applied to the same area. The obtained data in the experiments were analyzed with two-way analysis of variance, and executed T-test statistical analysis. All data were presented as mean ±SD. After comparisons, the abovementioned groups were analyzed statistically and noted by different marks to represent the statistically significant differences (* represents p<0.05; ** represents p<0.01).

[2] = test system: osteoclast related gene TRAP-5; test: Real-time PCR of bone cDNA from OVX mice: TRAP-5 expression; settings: bone RNA of OVX mice after 28 days of tube feed; compared with disease group (OVX+H2O)
Description: as §1, §2

[3] = * p<0.05, ** p<0.01, disease group OVX+H2O 0.344 ± 0.04, sham control 0.502 ± 0.04
[4] = * p<0.05, ** p<0.01, disease group OVX+H2O 30.9 ± 1.1, sham control 42.12 ± 2.4

Substance | expression of osteocalcin gene, FIG. 2 (osteocalcin gene) | expression of cytokine TGF-β (relative to GAPDH), FIG. 1 (cytokine TGF-β) | Femur bone mineral density (BMD, excluding cortical bone) [1, 3] | Femur bone mineral density (BMD, excluding cortical bone) ([1]; * p<0.05, ** p<0.01, disease group OVX+H2O 0.344 ± 0.04, sham control 0.502 ± 0.04, listed as alive GMNL-662) | Trabecular bone volume ratio (BV/TV, bone volume/tissue volume) [1, 4] | Trabecular bone volume ratio (BV/TV, bone volume/tissue volume) ([1]; * p<0.05, ** p<0.01, disease group OVX+H2O 30.9 ± 1.1, sham control 42.12 ± 2.4, listed as alive GMNL-662) | expression of osteoclast related gene TRAP-5, FIG. 3 [2] | Femur bone mineral density (BMD, excluding cortical bone) ([1]; * p<0.05, ** p<0.01, disease group OVX+H2O 0.344 ± 0.04, sham control 0.502 ± 0.04, listed as dead GMNL-662) | Trabecular bone volume ratio (BV/TV, bone volume/tissue volume) ([1]; * p<0.05, ** p<0.01, disease group OVX+H2O 30.9 ± 1.1, sham control 42.12 ± 2.4, listed as dead GMNL-662)
Lactobacillus plantarum strain GMNL-662 [GMNL-662 alive] | higher than the disease group | significant increased expression | 0.488 ± 0.02** g/cm^3 | significantly higher | 36.92 ± 1.7** % | higher than the disease group | significantly lower |  | 
Lactobacillus plantarum strain GMNL-662 [GMNL-662 dead] | higher than the disease group | significant increased expression | 0.474 ± 0.01** g/cm^3 |  | 36.8 ± 1.2** % |  | significantly lower | significantly higher | higher than the disease group
